The results in this text go back to ChEMBL document CHEMBL1130974, “High affinity phenylglycinol-based NK1 receptor antagonists” (Bioorg Med Chem Lett, 1998).

In one data set the target is Substance-P receptor (Homo sapiens, UniProt P25103). The data set is described as follows: Affinity towards hNK1 receptor by displacement of [125I]- Substance P from hNK1 receptor expressed in CHO cells. The format is cell-based.
Data set [1] is described as follows: Steady state volume of distribution dosing at 3 mg/kg iv. The data set is classed as ADME, organism-based. More on the design: dose 3 mg/kg, route intravenous. The note with it: rat, in vivo.
The nature of data set [2]: Plasma elimination half-life was determined. The format is ADME, organism-based. The settings on record: rat.
Data set [3] can be described thus: Tmax was determined. The format is ADME, organism-based. The note with it: rat, in vivo.
Data set [4] can be described thus: Oral bioavailability. The format is ADME, organism-based. The settings on record: rat, in vivo.
A short description of data set [5]: Maximal plasma drug concentration was determined. The format is ADME, organism-based. The note with it: rat.
For another data set, the target named is T1, Substance-K receptor (Homo sapiens, UniProt P21452).
T1 sequence (P21452 whole entry): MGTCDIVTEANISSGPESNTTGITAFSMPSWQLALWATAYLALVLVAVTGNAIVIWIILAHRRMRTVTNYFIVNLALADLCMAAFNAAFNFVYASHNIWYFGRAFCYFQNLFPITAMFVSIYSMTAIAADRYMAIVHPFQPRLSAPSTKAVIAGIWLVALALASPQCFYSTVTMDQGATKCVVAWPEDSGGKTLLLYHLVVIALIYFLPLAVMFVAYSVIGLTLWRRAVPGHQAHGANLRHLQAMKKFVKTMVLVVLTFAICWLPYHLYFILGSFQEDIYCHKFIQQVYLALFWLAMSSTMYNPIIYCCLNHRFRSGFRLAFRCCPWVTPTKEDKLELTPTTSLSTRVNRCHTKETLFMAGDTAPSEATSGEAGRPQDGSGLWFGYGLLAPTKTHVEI
The data set is described as follows: Binding affinity for Tachykinin receptor 2.

A further data set concerns the target T2, Neuromedin-K receptor (Homo sapiens, UniProt P29371).
T2 sequence (P29371 whole entry): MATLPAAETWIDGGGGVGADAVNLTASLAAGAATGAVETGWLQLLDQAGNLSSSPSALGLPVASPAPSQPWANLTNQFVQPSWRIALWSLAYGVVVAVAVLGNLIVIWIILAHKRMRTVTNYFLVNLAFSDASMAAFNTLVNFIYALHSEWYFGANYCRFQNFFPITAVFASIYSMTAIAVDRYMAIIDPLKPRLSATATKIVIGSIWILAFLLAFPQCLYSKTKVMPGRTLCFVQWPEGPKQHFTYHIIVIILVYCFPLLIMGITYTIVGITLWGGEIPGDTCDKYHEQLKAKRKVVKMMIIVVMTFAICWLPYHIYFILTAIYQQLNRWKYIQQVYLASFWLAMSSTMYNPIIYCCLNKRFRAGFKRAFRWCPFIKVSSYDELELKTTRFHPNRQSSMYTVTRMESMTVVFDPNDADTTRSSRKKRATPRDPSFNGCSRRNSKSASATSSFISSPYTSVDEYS
Briefly: Binding affinity for Tachykinin receptor 3.

Data set [6] in a line: Low affinity binding to calcium channel.

Chain of Substance-P receptor (P25103 whole entry): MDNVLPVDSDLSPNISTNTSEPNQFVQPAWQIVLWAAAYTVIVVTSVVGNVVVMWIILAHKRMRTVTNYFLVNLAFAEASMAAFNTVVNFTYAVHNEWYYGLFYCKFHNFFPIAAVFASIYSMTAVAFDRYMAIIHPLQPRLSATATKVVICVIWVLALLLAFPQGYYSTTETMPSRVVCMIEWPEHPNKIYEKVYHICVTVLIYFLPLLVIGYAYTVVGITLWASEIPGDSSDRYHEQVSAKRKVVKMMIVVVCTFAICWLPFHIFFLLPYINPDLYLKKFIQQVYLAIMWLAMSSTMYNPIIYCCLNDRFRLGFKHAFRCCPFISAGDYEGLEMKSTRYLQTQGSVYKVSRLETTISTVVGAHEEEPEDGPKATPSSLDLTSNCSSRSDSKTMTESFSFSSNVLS

For the compound `Cn1nnc(CN[C@H](COCc2cc(C(F)(F)F)cc(C(F)(F)F)c2)c2ccccc2)n1`, the IC50 on Substance-P receptor came to 0.015 µM.

Turning to `Cn1nnnc1CN[C@H](COCc1cc(C(F)(F)F)cc(C(F)(F)F)c1)c1ccccc1`, the IC50 at Substance-P receptor is 0.01 µM.

As for `CN(Cc1n[nH]c(O)n1)[C@H](COCc1cc(C(F)(F)F)cc(C(F)(F)F)c1)c1ccccc1`, the distribution volume (Vd) in [1] was found to be 3.5 L/kg. This compound showed a half-life in data set [2] of 48 min. For the same compound, in [3], the Tmax is 30 min. The compound also gave a bioavailability in [4] of 16%. For the same compound, in data set [5], the Cmax turned out to be 97 ng/mL. Besides, the IC50 at Substance-P receptor was 0.00043 µM; on Substance-K receptor, > 1 µM; on Neuromedin-K receptor, > 1 µM; in data set [6], > 1000 µM.

In the case of `Cc1cc(Cl)cc(COC[C@H](c2ccccc2)N(C)Cc2n[nH]c(O)n2)c1`, on Substance-P receptor, the IC50 is 0.0022 µM.

Regarding `CN(Cc1nc[nH]n1)[C@H](COCc1cc(C(F)(F)F)cc(C(F)(F)F)c1)c1ccccc1`, the IC50 at Substance-P receptor amounted to 0.0014 µM.

In turn, `Cc1cc(COC[C@H](c2ccccc2)N(C)Cc2n[nH]c(=O)[nH]2)cc(C(C)(C)C)c1` displayed an IC50 at Substance-P receptor of 0.00042 µM.

Turning to `CN(Cc1nn[nH]n1)[C@H](COCc1cc(C(F)(F)F)cc(C(F)(F)F)c1)c1ccccc1`, at Substance-P receptor, the IC50 was found to be 0.07 µM.

`CN(Cc1nnnn1C)[C@H](COCc1cc(C(F)(F)F)cc(C(F)(F)F)c1)c1ccccc1`: the IC50 at Substance-P receptor is 0.013 µM.

Consider `CCN(Cc1n[nH]c(O)n1)[C@H](COCc1cc(C(F)(F)F)cc(C(F)(F)F)c1)c1ccccc1`, for which, on Substance-P receptor, the IC50 came out at 0.0008 µM.

At Substance-P receptor, `CN(Cc1n[nH]c(O)n1)[C@H](COCc1cc(Cl)cc(Cl)c1)c1ccccc1` showed an IC50 of 0.0015 µM.

At Substance-P receptor, `FC(F)(F)c1cc(COC[C@@H](NCc2nnc[nH]2)c2ccccc2)cc(C(F)(F)F)c1` returned an IC50 of 0.005 µM.

For the compound `O=c1[nH]nc(CN[C@H](COCc2cc(C(F)(F)F)cc(C(F)(F)F)c2)c2ccccc2)[nH]1`, the IC50 on Substance-P receptor turned out to be 0.0024 µM.

On Substance-P receptor, `CN(Cc1nnn(C)n1)[C@H](COCc1cc(C(F)(F)F)cc(C(F)(F)F)c1)c1ccccc1` yielded an IC50 of 0.016 µM.

As to `CCCN(Cc1n[nH]c(O)n1)[C@H](COCc1cc(C(F)(F)F)cc(C(F)(F)F)c1)c1ccccc1`, the IC50 at Substance-P receptor was 0.002 µM.

Regarding `FC(F)(F)c1cc(COC[C@@H](NCc2nn[nH]n2)c2ccccc2)cc(C(F)(F)F)c1`, the IC50 on Substance-P receptor was determined as 0.023 µM.
